# Source: ChEMBL document CHEMBL1201862, “PubChem BioAssay data set” (2004)
#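 1) Cells in 96-well plates. 2) Compound, 48 h, 5 concentrations. 3) Linear interpolation between surrounding doses. 4) Unreached endpoint = highest concentration. GI50 = concentration required for 50% inhibition of growth.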 Activity calls are given as the source filed them. No stated cut-off is given here; in the data, active = GI50 up to about 1.1 µM and inactive = higher.
# Tests used:
# Assay in all cases: NCI-60 cell line screen, 48 h
# [1] = tested on: 786-0
# [2] = tested on: COLO 205
# [3] = tested on: OVCAR-3
# [4] = tested on: MOLT-4
# [5] = tested on: SK-MEL-28
# [6] = tested on: BT-549
# [7] = tested on: SN12C
# [8] = tested on: KM12
# [9] = tested on: Malme-3M
# [10] = tested on: CAKI-1
# [11] = tested on: MDA-MB-435
# [12] = tested on: OVCAR-8
# [13] = tested on: SNB-75
# [14] = tested on: SK-MEL-5
# [15] = tested on: UACC-62
# [16] = tested on: HT-29
# [17] = tested on: UO-31
# [18] = tested on: HL-60
# [19] = tested on: NCI-H522
# [20] = tested on: RPMI-8226
# [21] = tested on: CCRF-CEM
# [22] = tested on: LOX IMVI
# [23] = tested on: UACC-257
# [24] = tested on: MDA-MB-231
# [25] = tested on: K562
# [26] = tested on: Hs-578T
# [27] = tested on: SW-620
# [28] = tested on: ACHN
# [29] = tested on: IGROV-1
# [30] = tested on: TK-10
# [31] = tested on: OVCAR-5
# [32] = tested on: MCF7
# [33] = tested on: HCT-15
# [34] = tested on: HOP-62
# [35] = tested on: RXF 393
# [36] = tested on: SK-MEL-2
# [37] = tested on: HCT-116
# [38] = tested on: HCC 2998
# [39] = tested on: MDA-N
# [40] = tested on: PC-3
# [41] = tested on: SF-295
# [42] = tested on: A549
# [43] = tested on: NCI-H23
# [44] = tested on: U-251
# [45] = tested on: DU-145
# [46] = tested on: SK-OV-3
# [47] = tested on: EKVX
# [48] = tested on: NCI/ADR-RES
# [49] = tested on: NCI-H226
# [50] = tested on: M14
# [51] = tested on: NCI-H460
# [52] = tested on: OVCAR-4
# [53] = tested on: T47D
# [54] = tested on: SF-268
# [55] = tested on: SNB-19
# [56] = tested on: SF-539
# [57] = tested on: SR
# [58] = tested on: A498
smiles,measurement,setting,value
C=CCN(C(=O)OC(C)(C)C)C1=CC2C(C)=CN(S(=O)(=O)c3ccccc3)C2C(OCc2ccccc2)=C1 (configuration not stated),GI50,[1],> 100 µM (inactive)
same,GI50,[2],> 100 µM (inactive)
same,GI50,[3],> 100 µM (inactive)
same,GI50,[4],> 100 µM (inactive)
same,GI50,[5],> 100 µM (inactive)
same,GI50,[6],> 100 µM (inactive)
same,GI50,[7],> 100 µM (inactive)
same,GI50,[8],> 100 µM (inactive)
same,GI50,[9],> 100 µM (inactive)
same,GI50,[10],> 100 µM (inactive)
same,GI50,[11],> 100 µM (inactive)
same,GI50,[12],> 100 µM (inactive)
same,GI50,[13],6.18 µM (inactive)
same,GI50,[14],> 100 µM (inactive)
same,GI50,[15],> 100 µM (inactive)
same,GI50,[16],13.4 µM (inactive)
same,GI50,[17],> 100 µM (inactive)
same,GI50,[18],> 100 µM (inactive)
same,GI50,[19],> 100 µM (inactive)
same,GI50,[20],> 100 µM (inactive)
same,GI50,[21],> 100 µM (inactive)
same,GI50,[22],> 100 µM (inactive)
same,GI50,[23],> 100 µM (inactive)
same,GI50,[24],> 100 µM (inactive)
same,GI50,[25],7.59 µM (inactive)
same,GI50,[26],> 100 µM (inactive)
same,GI50,[27],> 100 µM (inactive)
same,GI50,[28],> 100 µM (inactive)
same,GI50,[29],> 100 µM (inactive)
same,GI50,[30],> 100 µM (inactive)
same,GI50,[31],> 100 µM (inactive)
same,GI50,[32],> 100 µM (inactive)
same,GI50,[33],> 100 µM
same,GI50,[34],> 100 µM (inactive)
same,GI50,[35],36.1 µM (inactive)
same,GI50,[36],> 100 µM (inactive)
same,GI50,[37],54 µM (inactive)
same,GI50,[38],> 100 µM (inactive)
same,GI50,[39],> 100 µM (inactive)
same,GI50,[40],> 100 µM (inactive)
same,GI50,[41],> 100 µM (inactive)
same,GI50,[42],> 100 µM (inactive)
same,GI50,[43],> 100 µM (inactive)
same,GI50,[44],> 100 µM (inactive)
same,GI50,[45],> 100 µM (inactive)
same,GI50,[46],> 100 µM (inactive)
same,GI50,[47],> 100 µM (inactive)
same,GI50,[48],> 100 µM (inactive)
same,GI50,[49],> 100 µM (inactive)
same,GI50,[50],> 100 µM (inactive)
same,GI50,[51],> 100 µM (inactive)
same,GI50,[52],> 100 µM (inactive)
OCC1COc2cc(Cl)c(Cl)cc2O1 (configuration not stated),GI50,[53],> 10 µM (inactive)
same,GI50,[2],> 10 µM (inactive)
same,GI50,[3],> 10 µM (inactive)
same,GI50,[4],> 10 µM (inactive)
same,GI50,[5],> 10 µM (inactive)
same,GI50,[7],> 10 µM (inactive)
same,GI50,[8],> 10 µM (inactive)
same,GI50,[9],> 10 µM (inactive)
same,GI50,[10],> 10 µM (inactive)
same,GI50,[11],> 10 µM (inactive)
same,GI50,[12],> 10 µM (inactive)
same,GI50,[13],> 10 µM (inactive)
same,GI50,[14],> 10 µM (inactive)
same,GI50,[15],> 10 µM (inactive)
same,GI50,[16],> 10 µM (inactive)
same,GI50,[17],> 10 µM (inactive)
same,GI50,[18],> 10 µM (inactive)
same,GI50,[19],1.42 µM (inactive)
same,GI50,[20],> 10 µM (inactive)
same,GI50,[21],> 10 µM (inactive)
same,GI50,[22],> 10 µM (inactive)
same,GI50,[24],> 10 µM (inactive)
same,GI50,[25],> 10 µM (inactive)
same,GI50,[26],> 10 µM (inactive)
same,GI50,[27],> 10 µM (inactive)
same,GI50,[28],> 10 µM (inactive)
same,GI50,[29],> 10 µM (inactive)
same,GI50,[30],> 10 µM (inactive)
same,GI50,[31],> 10 µM (inactive)
same,GI50,[32],> 10 µM (inactive)
same,GI50,[33],> 10 µM
same,GI50,[34],> 10 µM (inactive)
same,GI50,[35],> 10 µM (inactive)
same,GI50,[54],> 10 µM (inactive)
same,GI50,[36],> 10 µM (inactive)
same,GI50,[37],> 10 µM (inactive)
same,GI50,[38],> 10 µM (inactive)
same,GI50,[39],> 10 µM (inactive)
same,GI50,[40],> 10 µM (inactive)
same,GI50,[41],> 10 µM (inactive)
same,GI50,[55],> 10 µM (inactive)
same,GI50,[56],> 10 µM (inactive)
same,GI50,[42],> 10 µM (inactive)
same,GI50,[43],> 10 µM (inactive)
same,GI50,[44],> 10 µM (inactive)
same,GI50,[57],> 10 µM (inactive)
same,GI50,[45],> 10 µM (inactive)
same,GI50,[46],> 10 µM (inactive)
same,GI50,[47],> 10 µM (inactive)
same,GI50,[58],> 10 µM (inactive)
same,GI50,[48],> 10 µM (inactive)
same,GI50,[49],6.3 µM (inactive)
same,GI50,[50],> 10 µM (inactive)
same,GI50,[51],> 10 µM (inactive)
same,GI50,[52],> 10 µM (inactive)
